Patent US9587220B2, “Method for inducing cardiac differentiation of pluripotent stem cell” (Kyoto University, priority 2012, dated 2017)

Legend:
[1] = tested on: WNT target genes in IMR90-1 hiPSCs; assay: Microarray and qPCR gene expression of WNT target genes; format: cell-based, human; details: for expression levels of WNT target genes by qPCR: 12, 24 and 72 h after treatment
Procedure: IMR90-1 iPSCs were cultured in cardiac differentiation medium containing serum. On Day 3, cells were treated with 10 μM KY02111 or 0.1% DMSO for 0, 12, or 24 h. Non-treated cells (0 h), cells treated with KY02111 for 12 h (KY12hr) or 24 h (KY24hr), and cells treated with 0.1% DMSO for 12 h (DMSO12hr) or 24 h (DMSO24hr) were used for microarray analysis. Total RNA was prepared using the RNeasy Mini Kit (Qiagen), according to the manufacturer's instructions. Synthesis of cDNA, in vitro transcription and biotin labeling cRNA, and hybridization to the Human Gene 1.0 ST array (Affymetrix) were performed according to Affymetrix protocols. Hybridized arrays were scanned using an Affymetrix GeneChip Scanner. Data normalization and further analysis were performed with GeneSpring GX (Agilent Technologies). Proportions of treated cells expressing genes relative to control (KY02111/DMSO) were calculated for each time point. […] The microarray data have been submitted to the Gene Expression Omnibus (GEO) public database at NCBI (GEO accession number, GSE33622).
Total RNA was isolated with an RNeasy Mini Kit (QIAGEN). Genomic DNA was completely digested with DNase I (Invitrogen). Total RNA (0.5 μg) was subjected to cDNA synthesis using the SuperScript III Reverse Transcriptase (Invitrogen). qRT-PCR was performed in triplicate, using SYBER GREEN PCR Master Mix on a 7500 Real Time PCR System (Applied Biosystems). The cycling conditions were as follows: 10 min at 95° C.; 40 cycles, each consisting of 15 s at 95° C.; 1 min at 60° C. Total RNA from human adult heart tissue (BioChain) was used to evaluate the expression levels of cardiac marker genes for cardiomyocytes derived from hPSCs. All values were normalized with respect to GAPDH expression level and expressed relative to the corresponding values in human adult hearts (100%).

[2] = tested on: IMR90-1 hiPSCs; assay: Beating colonies of hiPSCs (IMR90-1) in serum-containing cardiac differentiation; format: cell-based, human; details: for proportions of beating colonies: hiPSCs; for proportions of beating colonies with BIO: with 5 μM BIO (GSK3β inhibitor)
Procedure: Confluent hESCs and hiPSCs were gently detached with CTK solution and transferred into Petri dishes (BD Biosciences) with Primate ES Cell Culture Medium (ReproCELL, Japan). Cells were held in suspension culture for 8-24 h to form aggregates. The sizes of hPSC aggregates (0.3-1 mm in diameter) are important for efficient differentiation. Following suspension culture, cell aggregates were attached to culture dishes (3-10×10^5 cells cm^−2) in cardiac differentiation medium: IMDM (Sigma), containing 20% FBS (Gibco), 1% MEM non-essential amino acid solution (Sigma), 1% Penicillin-Streptomycin (Gibco), 2 mM L-glutamine (Sigma), 0.001% 2-Mercaptoethanol (Gibco), and 0.005N NaOH, with 10 ng ml^−1 BMP4 (R&D Systems). The medium was changed to cardiac differentiation medium with 10 μM KY02111 and/or other WNT inhibitors added on Day 3 (hiPSC lines) or Day 4 (human or monkey ESC lines); XAV939 (Wako, Japan), IWP-2 (Santa Cruz Biotechnology), IWR-1 (Merck4Bioscience), IGFBP4 (R&D Systems), Dkk1 (R&D Systems) and the mixture of bFGF (R&D Systems), BMP4 (R&D Systems), VEGF (R&D Systems), DKK1 (R&D Systems), and Activin A (R&D Systems) (Non-patent literature 16). Medium was changed every 2-3 d. KY02111 and other WNT inhibitors were added until Day 9 for hiPSC lines and the monkey ESC line, or Day 14 for hESC lines. On Day 15, cardiac cell colonies on dishes were incubated with protease solution (0.1% collagenase type I, 0.25% trypsin, 1 U ml^−1 DNase I, 116 mM NaCl, 20 mM HEPES, 12.5 mM NaH2PO4, 5.6 mM glucose, 5.4 mM KCl, and 0.8 mM MgSO4, pH 7.35) for 0.5-2 h, until all cardiac colonies were detached from the bottom of the wells. The detached cardiac colonies were transferred into 15 ml tubes with fresh cardiac differentiation medium and precipitated by gravity, and the supernatant was removed by aspiration. The cardiac colonies were then transferred into Ultra-low culture dishes (Corning, 3261) or 6-well plates (Corning, YO-01835-24) in cardiac differentiation medium without both serum and NaOH. The floating cardiac colonies were maintained for more than 1 month, and the media were changed every 5 d. A differentiation method of mouse ESC (R1 line) was carried out as previously described^46, and KY02111 was added during Days 3-6. Beating colonies were counted on Day 9.

SMILES	expression levels of WNT target genes by qPCR [1]	proportions of beating colonies ([2]; FIG. 3d) [%]	proportions of beating colonies with BIO ([2]; FIG. 3d)	number of genes changed >25% at both 12 and 24 h (microarray) ([1]; 10 μM, versus DMSO) [genes]	promotion of cardiac differentiation of hiPSCs compared with other WNT inhibitors ([2]; FIG. 3d)	proportion of beating colonies after subculture ([2]; floating culture of beating colonies, FIG. 6)	day on which beating colonies emerged ([2]; time course, FIG. 6) [days]	day until which cardiac colonies continued beating ([2]; time course, FIG. 6) [days]
Oc1nc(-c2ccc(C(F)(F)F)cc2)nc2c1CSCC2 [XAV939, reference compound]	suppressed	7.5	completely inhibit	–	–	–	–	–
Cc1ccc2nc(NC(=O)CSc3nc4c(c(=O)n3-c3ccccc3)SCC4)sc2c1 [IWP-2, reference compound]	suppressed	37	completely inhibit	–	–	–	–	–
COc1ccc(CCC(=O)Nc2nc3ccc(Cl)cc3s2)cc1OC [KY02111, 2-(3-(3,4-dimethoxyphenyl)propanamide)-6-chlorobenzothiazole]	suppressed	87	did not cancel	26	most effective	up to 90%	10	≥ 50
